We go through three compounds from patent US20110152252A1 (priority 2007, published 2011).

Experiment [1] has as its system Gb3-expressing HT-29 cells. Nature of the experiment: cells. Format: cell-based.
Experiment [2] concerns the target mitochondrial peripheral benzodiazepine receptor, mPBR (Homo sapiens, UniProt P30536). To be noted: cited from earlier work.
For experiment [3], the system named is periampular tumors in APC^1638N mice. The following applies: mouse, in vivo.

Like-named read-outs stand apart in the source and are kept apart here.

What is called IC50 is the midpoint of a concentration-inhibition curve. Broadly, the Ki is a measure of affinity in units of concentration, obtained from inhibition or displacement.

mitochondrial peripheral benzodiazepine receptor, mPBR, sequence (P30536 whole entry): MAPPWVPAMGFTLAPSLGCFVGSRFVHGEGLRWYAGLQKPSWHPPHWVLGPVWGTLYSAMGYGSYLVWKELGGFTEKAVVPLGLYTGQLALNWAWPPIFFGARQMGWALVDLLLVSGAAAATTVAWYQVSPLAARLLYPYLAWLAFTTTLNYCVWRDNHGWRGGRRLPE

Take SN-38: the IC50 in experiment [1] (read-out: IC50) stood at 30 nM.

As to RO5-4864, the Ki in experiment [2] is 23 nM.

With `CCc1c2c(nc3ccc(OC(=O)N4CCC(N5CCCCC5)CC4)cc13)-c1cc3c(c(=O)n1C2)COC(=O)[C@]3(O)CC` [CPT11], in experiment [3], the “inflammatory reaction in the periampular region (pathology)” value was “weak and very moderate inflammatory reaction”; the “tumor growth / development of periampular tumors” value is “periampular tumors developed”; the “tumor lesions detected (pathology)” value was “high-grade adenomas and carcinomas could be detected”. The compound also came in with an IC50 in experiment [1] (Homo sapiens, HT-29) of 70000 nM.
